The text below walks through data of patent US5933819A, “Prediction of relative binding motifs of biologically active peptides and peptide mimetics” (The Scripps Research Institute, priority 1997, dated 1999).

Where two headings read alike, the source gives them in different places. Where no end group is shown, it is not given here.

In experiment [1] the target is T1, K^b on the surface of K^b transfected drosophila cells (Mus musculus, UniProt P01901).
T1 construct: expressed in transfected cells; host or cells: Drosophila cells transfected with K^b
T1 sequence (P01901 22-369): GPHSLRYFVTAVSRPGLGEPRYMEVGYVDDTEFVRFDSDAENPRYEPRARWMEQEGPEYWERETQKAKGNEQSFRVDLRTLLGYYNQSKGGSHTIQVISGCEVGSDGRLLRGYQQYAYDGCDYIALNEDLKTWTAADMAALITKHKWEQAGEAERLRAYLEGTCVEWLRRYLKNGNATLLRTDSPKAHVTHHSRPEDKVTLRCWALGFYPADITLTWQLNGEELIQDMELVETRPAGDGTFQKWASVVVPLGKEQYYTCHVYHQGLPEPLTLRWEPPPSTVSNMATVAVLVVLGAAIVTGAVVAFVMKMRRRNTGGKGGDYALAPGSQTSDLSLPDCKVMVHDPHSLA
T1 sequence (P01887 21-119 partner): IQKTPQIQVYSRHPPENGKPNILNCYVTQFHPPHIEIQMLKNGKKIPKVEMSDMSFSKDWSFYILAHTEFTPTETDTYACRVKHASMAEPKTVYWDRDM
Kind of experiment: FACS analysis of stabilization of cell surface K^b by peptides. The experiment is classed as cell-based. The method, then:
FACS Analysis. Values from fluorescence activated cell sorter (FACS) analysis showing the relative amounts of K^b on the surface of K^b transfected drosophila cells following an 18-hour incubation with the indicated peptides. […] Median fluorescence values from separate experiments were normalized by subtracting the median fluorescence obtained in the absence of added peptides from each peptide sample and then expressing those values as the percent of the fluorescence obtained with […] (which was examined in all experiments). Peptide binding was also analyzed by the ability to stabilize cell surface K^b molecules. Empty class I molecules are thermolabile, but they can be stabilized by binding appropriate peptides. Peptides were bound to K^b molecules expressed on the surfaces of K^b transfected Drosophila cells. Their relative binding strengths are indicated by their median fluorescence.

Experiment [2] addresses T2, K^b (Mus musculus, UniProt P01901).
T2 construct: Soluble K^b was purified from transfected Drosophila cells; made in house; host or cells: transfected Drosophila cells
T2 sequence (P01901 22-305 limits assumed): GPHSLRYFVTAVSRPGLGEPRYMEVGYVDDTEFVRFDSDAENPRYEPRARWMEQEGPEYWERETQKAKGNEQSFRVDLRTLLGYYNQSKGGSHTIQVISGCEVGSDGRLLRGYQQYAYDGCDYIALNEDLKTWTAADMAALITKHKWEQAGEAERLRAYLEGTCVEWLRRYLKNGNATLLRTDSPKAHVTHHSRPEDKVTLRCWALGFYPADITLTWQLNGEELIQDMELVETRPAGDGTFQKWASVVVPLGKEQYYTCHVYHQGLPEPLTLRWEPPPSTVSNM
T2 sequence (P01887 21-119 partner): T1 sequence (P01887 21-119 partner)
Put plainly: biochemical. Type of experiment: binding.

In experiment [3] the target is T2, K^b. Particulars: known immunodominant epitope, characterized previously; read-out: KD (dissociation constant); cited from earlier work.
Where [4] appears, read: 18-hour incubation with peptide, 23° C., antibody Y3, median fluorescence normalized to SIINFEKL
Setting [5] is: read-out: KD (dissociation constant).

Consider KVVRFDKL [Peptide 5], for which the “FACS Analysis % SIINFEKL (relative amount of K^b on cell surface)” value in experiment [1] (setting [4]) stood at 94 % SIINFEKL. In addition, binding on K^b [2] was put at a Kd of 0.026 µM.
Taken in the same sequence, the figures for AEERYPIL [Peptide 3] were 42 % SIINFEKL and 67 µM.
For ASEKMKIL [Peptide 9] the same measures were 4 % SIINFEKL and 550 µM.
For RGDKLPGFG [Peptide 6] the same measures were 30 % SIINFEKL and 550 µM.
Take NAIVFKGL [Peptide 4]: the “FACS Analysis % SIINFEKL (relative amount of K^b on cell surface)” value in experiment [1] (setting [4]) was 76 % SIINFEKL. This compound also returned a Kd at K^b [2] of 0.013 µM.
As for `CC[C@H](C)[C@H](NC(=O)[C@@H](NC(=O)[C@@H](N)CO)[C@@H](C)CC)C(=O)N[C@@H](CC(N)=O)C(=O)N[C@@H](Cc1ccccc1)C(=O)N[C@@H](CCC(=O)O)C(=O)N[C@@H](CCCCN)C(=O)N[C@@H](CC(C)C)C(=O)O` [Peptide 1, reference compound], the “FACS Analysis % SIINFEKL (relative amount of K^b on cell surface)” value in experiment [1] (setting [4]) is listed as 100 % SIINFEKL. For the same compound, the Kd on K^b [3] was 0.003 µM.
As to DVYSFSLA [Peptide 7], the “FACS Analysis % SIINFEKL (relative amount of K^b on cell surface)” value in experiment [1] (setting [4]) turned out to be 65 % SIINFEKL. Further, the equilibrium dissociation constant (Kd) at K^b [2] worked out at 0.07 µM.
On to SALAMVYL [Peptide 2], for which the “FACS Analysis % SIINFEKL (relative amount of K^b on cell surface)” value in experiment [1] (setting [4]) is 100 % SIINFEKL. Further, at K^b [2], binding was characterised by a dissociation constant (Kd) of 0.0071 µM.
Taken in the same sequence, the figures for GTMSMLVL [Peptide 8] were 0 % SIINFEKL and 1.2 µM.
As to RGYVYQGL [VSV8, reference compound], on K^b [2] (setting [5]), the dissociation constant (Kd) worked out at 0.0041 µM.
For ENIFYCPI [Peptide 11], in experiment [1], the “FACS Analysis % SIINFEKL (relative amount of K^b on cell surface)” value was 77. For the same compound, the dissociation constant (Kd) on K^b [2] (setting [5]) was 0.094 µM.
Consider DHPFLFCI [Peptide 10], for which the “FACS Analysis % SIINFEKL (relative amount of K^b on cell surface)” value in experiment [1] (setting [4]) amounted to 38 % SIINFEKL. The compound further had a Kd on K^b [2] of 47 µM.
